The test system of data set [1] is human prostate cancer xenografts. The conditions noted are these: two weeks in vivo treatment with 20 or 30 mg/kg; cited from earlier work.
For data set [2], the system named is human pancreatic ductal adenocarcinoma cell line MiaPaCa2 xenografts. The data set is described as follows: Amy22 treatment of MiaPaCa2 xenografts in NOD/SCID mice. The conditions noted are these: Amy22 150 mg/kg for two weeks. Format: in vivo. The procedure:
For transplantation, eight-week old NOD/SCID mice were anesthetized using a steady flow of a mixture of isofluorane gas (4%) and oxygen and inoculated subcutaneously into their lateral flanks with 10^6 cancer cells and monitored daily until the tumors became palpable (tumor volume ˜100 mm^3). The mice were then divided randomly into two groups for Amy22 (150 mg/kg) or vehicle administration for a period of two weeks. Average weights±S.E.M (n=4 in each case) are indicated (p<0.001 and <0.05 for MiaPaCa2 and MMTV-Myc, respectively). […] FIG. 3 illustrates the gross appearance of surgically recovered Amy22-treated or untreated (control) xenografts.

In another data set the test system is TGR-1 cells. The data set is described as follows: MTT cell viability assay, TGR-1 cells (Myc+/+). Format: cell-based. The conditions noted are these: Rattus norvegicus, TGR1, 72 h; for IC50: Myc+/+ cells, MTT day 3, logit-log linear regression. An excerpt: (§1) To evaluate the in vitro activity of the compound having the formula (II) (Amy22), the sibling cell lines TGR-1 and H015.19 were used. The TGR-1 cells are a subclone of the Rat-1 fibroblastic cell line with intact Myc (Myc^+/+), whereas the H015.19 cells are Myc^−/− derivatives of the TGR-1 cells (Mateyak et al., 1997). The two sibling cell lines thus differ only in the presence or absence of Myc, thereby allowing to determine not only the activity of the tested compound in Myc-positive cancer cells, but also in cells not expressing Myc offering an indication of the specificity of the tested compound.
(§2) The TGR-1 and H015.19 cells were grown in DMEM supplemented with 10% FBS. Equal numbers of cells were seeded in multiple wells of 24-well plates at low density (<20% confluence at day 0), and either DMSO or DMSO-dissolved Amy22 (various concentrations) was added to the medium (final concentration of DMSO: 0.1%). Cell viability (sextuplicates) was measured on day 3 by using a standard MTT (Thiazolyl Blue Tetrazolium Bromide) colorimetric assay (Mosmann, 1983). Half-maximal inhibitory concentrations (IC50) were determined using a log it-log plot and linear regression of the data (SigmaPlot software; Systat Software, Inc., San Jose, Calif., USA), as shown in FIG. 1 and Table 1. The measured data were plotted on the log it-log plot for linear regression of cell viability data (average values from 5 independent experiments in each case), in order to calculate the Amy22 IC50 for the sibling cell lines that differ only in the presence or absence of Myc (TGR-1 and H015.19 cells, respectively). The IC50 for H015.19 cells was calculated by extrapolation.
A general note: Tetrazolium dyes change colour on reduction, which living cells bring about.

Data set [3] in a line: Blood concentrations of Amy22 after oral gavage to mice (LC-MS/MS, non-compartmental analysis). Format: in vivo, mouse. The method, then: Animals at the age of 10 weeks were fasted overnight and weighed before dosing (average weight=21.6 g, n=6 male C57BL/6N). Dosing solutions of 20 mg/ml Amy22 in 0.5% carboxymethyl cellulose (CMC) were used for administration per os (0.15 ml per animal, dose 140 mg/kg). A serial tail bleeding protocol was used for the collection of blood samples. Blood samples (10 μl) were collected at selected time points (0.5, 1, 2, 4, 8, 24 hours) in tubes containing 40 μl sodium citrate (0.1 M, pH 4.5) and stored at −80° C. until sample extraction. Samples were prepared for quantification by protein precipitation and evaporation. Amy22 was quantified by LC-MS/MS analysis.
Pharmacokinetic Parameters Using Non-Compartmental Analysis

The nature of data set [4]: MTT cell viability assay, H015.19 cells (Myc-/-). It counts as cell-based, rat. The settings on record: rat, H015.19 cells (Myc-/- derivatives of TGR-1), day 3, MTT, average ± S.E.M.
Description: as §1, §2

The next data set concerns H015.19 cells. The data set is described as follows: MTT cell viability assay, H015.19 cells (Myc-/-). Format: cell-based, rat. The settings on record: Rattus norvegicus, 72 h, Myc-/- cells.
Description: as §1, §2

In data set [5] the test system is pancreatic ductal adenocarcinoma (PDA). The data set is described as follows: Micro PET/CT imaging of Pdx1-Cre/KRAS*A mouse treated with Amy22. Format: in vivo. The method, then:
PET/CT images were acquired of a Pdx1-Cre/KRAS*A mouse at the beginning and end of treatment (one month) of pancreatic ductal adenocarcinoma (PDA) with the Amy22 compound (cf. FIG. 4; a representative out of three independent experiments is shown). Dosing solutions of 20 mg/ml Amy22 in 0.5% carboxymethyl cellulose (CMC) were used for daily administration per os (0.15 ml per animal, dose 150 mg/kg) for 30 days. The diminished uptake of ^18F-FDG by remnants of PDA is evident and measured by the standardized uptake values (SUV values) that were 2.87 at the beginning and 1.5 at the end of the treatment. The white arrows indicate the anatomical sites of pancreata. High-level concentration of ^18F-FDG in the urinary bladder (excretion of the tracer) and also in the heart (yellow arrows) is noted.

The test system is the same in data set [6]. The data set is described as follows: Post-mortem gamma counting of 18F-FDG uptake in Pdx1-Cre/KRAS*A mice after monotherapy or combination with Amy22. It counts as in vivo, mouse. The settings on record: one month; Gemcitabine 300 mg/kg IP weekly; in combination Amy22 150 mg/kg per os daily.
Description: The representative PET/CT images shown were acquired for Pdx1-Cre/KRAS*A mice at the beginning and end of treatment (one month) of pancreatic ductal adenocarcinoma (PDA) using either Gemcitabine alone or a combination of Gemcitabine and Amy22. The scheme used for the treatment was as follows: weekly IP administration of Gemcitabine (300 mg/kg) in both cases and daily administration of AMY22 per os (150 mg/kg) in the combination treatment (cf. FIG. 5).
In some scans, a high-level concentration of ^18F-FDG in the urinary bladder (excretion of the tracer) could be observed. High uptake of radioactivity (unrelated to the presence of tumor) was also noted in the heart.
[7] abbreviates: mouse, whole blood, po, blood, male C57BL/6N mice, 140 mg/kg per os in 0.5% CMC.
Setting [8] is: MTT day 3, logit-log linear regression.

By viability is commonly meant a read-out of living cells in per cent, often relative to untreated cells. As a reminder, the IC50 is the point on the concentration scale where inhibition reaches its midpoint. Broadly, the AUC(0-inf) is total exposure, with the tail of the curve extrapolated. Read a high AUC(0-inf) as high exposure. As a reminder, the Cmax is the peak of the concentration-time curve. As usually defined, the Tmax is the time from dosing to the highest level.

Bounds are passed on as bounds.

As for `CCc1ccc(C=C2SC(=S)NC2=O)cc1` [10058-F4, [Z,E]-5-[4-ethylbenzylidine]-2-thioxothiazolidin-4-one], in data set [1], the “inhibition of tumor growth” value is recorded as “no significant inhibition of tumor growth”.
Turning to `O=C(Nc1c(C(=O)O)cnn1-c1ccccc1)c1cc2nc(-c3ccco3)cc(C(F)(F)Cl)n2n1` [Amy22], the apoptosis in xenografts entry in data set [2] was “induced apoptosis”. Also, the “proliferation index (Ki67 immunohistochemistry)” value in data set [2] (MiaPaCa2 xenografts, controls 69.9±5.1%) amounted to 15.0±3.3%. Further, in the data set with TGR-1 cells (Amy22 0.1 μM, day 3, MTT, average ± S.E.M), the viability at 0.1 µM came to 84.4 ± 5%. In the data set with TGR-1 cells (Amy22 0.5 μM, day 3, MTT, average ± S.E.M), this molecule yielded a viability at 0.5 µM of 73.7 ± 4%. The molecule also gave a viability at 1 µM in the data set with TGR-1 cells (Amy22 1 μM, day 3, MTT, average ± S.E.M) of 67.3 ± 4.1%. The molecule further gave a viability at 5 µM in the data set on TGR-1 cells (Amy22 5 μM, day 3, MTT, average ± S.E.M) of 54.5 ± 4.6%. In the data set with TGR-1 cells (Amy22 10 μM, day 3, MTT, average ± S.E.M), this molecule came in with a viability at 10 µM of 46 ± 2.5%. The molecule further showed a viability at 25 µM in the data set with TGR-1 cells (Amy22 25 μM, day 3, MTT, average ± S.E.M) of 39.9 ± 2.2%. Also, the viability at 50 µM in the data set on TGR-1 cells (Amy22 50 μM, day 3, MTT, average ± S.E.M) was 26.8 ± 4.8%. The molecule also yielded a viability at 100 µM in the data set with TGR-1 cells (Amy22 100 μM, day 3, MTT, average ± S.E.M) of 19 ± 3.7%. The same molecule came in with a half-maximal inhibitory concentration (IC50) with TGR-1 cells of 5.8 µM. Also, the “Elimination rate constant (ke)” value in data set [3] (blood, male C57BL/6N mice, 140 mg/kg per os in 0.5% CMC) turned out to be 0.2 ± 0.1 h⁻¹. Besides, in data set [3] (setting [7]), the AUC(0-inf) amounted to 35.4 ± 9.5 µM·h, the maximum concentration (Cmax) stood at 6.2 ± 1.1 µM and the Tmax was found to be 1.5 ± 0.5 h. The AUC(0-t) in data set [3] (mouse, whole blood, po, blood, male C57BL/6N mice, 140 mg/kg per os in 0.5% CMC, read-out: AUC0-24) turned out to be 33.6 ± 8.3 µM·h. For the same molecule, the blood concentrations in data set [3] (up to at least 8 hr post dose, oral 140 mg/kg) was > 1 micro molar. For the same molecule, the viability at 3 days, 0.1 μM in data set [4] (Amy22 0.1 μM) is 86.3 ± 5.9%. The viability at 3 days, 0.5 μM in data set [4] (Amy22 0.5 μM) came out at 84.7 ± 5.7%. The same molecule came in with a viability at 3 days, 1 μM in data set [4] (Amy22 1 μM) of 80 ± 4.1%. The viability at 3 days, 5 μM in data set [4] (Amy22 5 μM) was determined as 75.3 ± 8.8%. This molecule also came in with a viability at 3 days, 10 μM in data set [4] (Amy22 10 μM) of 74.6 ± 4.9%. The molecule further gave a viability at 3 days, 25 μM in data set [4] (Amy22 25 μM) of 70.8 ± 5.1%. Also, in data set [4] (Amy22 50 μM), the viability at 3 days, 50 μM is 67.8 ± 4%. This molecule gave a viability at 3 days, 100 μM in data set [4] (Amy22 100 μM) of 61.1 ± 3.8%. The IC50 with H015.19 cells (MTT day 3, calculated by extrapolation) was 1800 µM. In data set [5] (after 150 mg/kg per os daily for 30 days), the “survival and condition of treated mice” value was “still alive 3 months post-treatment with no evident signs of cachexia”. Moreover, the “standardized uptake value (SUV) of 18F-FDG” value in data set [5] (at the beginning of treatment) came to 2.87. The “standardized uptake value (SUV) of 18F-FDG” value in data set [5] (at the end of treatment, 150 mg/kg per os daily for 30 days) was 1.5.
As to `Nc1ccn([C@@H]2O[C@H](CO)[C@@H](O)C2(F)F)c(=O)n1` [Gemcitabine], the “remaining tumor as % of untreated PDA tumors (18F-FDG uptake, gamma counting post-mortem)” value in data set [6] stood at 31%.
For `O=C(Nc1ccc(F)cc1)c1cc2nc(-c3ccco3)cc(C(F)(F)Cl)n2n1` [formula (III), reference compound], the concentration for half-maximal inhibition (IC50) with TGR-1 cells stood at 6.5 µM; with H015.19 cells (setting [8]), 13.4 µM.
The like results for `O=C(c1cc2nc(-c3ccco3)cc(C(F)(F)Cl)n2n1)N1CCNCC1` [formula (IV), reference compound] were, in that order, 12.3 µM and 58.8 µM.

Source of the values: patent US10287294B2, “Compounds for use in treating or preventing cancerous diseases” (BIOMEDICAL RESEARCH FOUNDATION OF THE ACADEMY OF ATHENS, priority 2015, dated 2019).
